Data reported in US20210052701A1, “Methods of Treating Vascular Leakage Using CXCL12 Peptides” (The Medical College of Wisconsin, Inc., priority 2018, published 2021).

Tests used:
hPPAEC [1] = assay: Effects of CXCR4 agonists / CXCL12 variants on thrombin-induced impairment of hPPAEC monolayer permeability; assay type: cell-based, human
Protocol: FIGS. 3A-3D show effects of CXCL12 and ubiquitin on thrombin-induced impairment of hPPAEC monolayer permeability. hPPAEC were grown to a confluent monolayer on collagen-coated permeable membranes. (A) hPPAEC were pre-treated with vehicle, 100 nM of CXCL12 or ubiquitin for 10 minutes, as indicated, and then exposed to thrombin (50 nM), followed by the addition of FITC-dextran. Vehicle: no thrombin. Endothelial permeability was assessed by measuring the amount of FITC-dextran that permeated through the cell monolayer. No cells: 100% permeability (open circles). RFU: Relative fluorescence units. N=3 in quadruplicate. *: p<0.05 vs. vehicle/thrombin. (B-D) hPPAEC were exposed to 35 nM of thrombin or vehicle. After 10 min, thrombin-exposed cells were treated with vehicle, CXCL12 (50 nM) and/or AMD3100 (10 μM) (B), with vehicle, ubiquitin (50 nM) and/or AMD3100 (10 μM) (C) or with various concentrations of ubiquitin (D) followed by the addition of FITC-dextran. The experimental conditions are indicated. Endothelial permeability was assessed by measuring the amount of FITC-dextran that permeated through the cell monolayer. RFU: Relative fluorescence units. N=3 in quadruplicate. *: p<0.05 vs. thrombin/vehicle (2-way ANOVA/Bonferroni's multiple comparison post hoc test).
FIGS. 7A-7D show dose-dependent effects of CXCL12α/β, CXCL12 (3-68) and CXCL12 mutants K27A/R41A/R47A, R47E and S-S4V on thrombin-induced impairment of hPPAEC monolayer permeability. hPPAEC cells were grown to a confluent monolayer on collagen-coated permeable membranes. hPPAEC were then exposed to 35 nM of thrombin. After 10 min, thrombin-exposed cells were treated with vehicle or 50 nM (A), 5 nM (B), 0.5 nM (C) or 0.05 nM (D) of the various proteins, as indicated. In (D) 5 nM CXCL12a was used as a positive control. N=3 in quadruplicate.
FIGS. 8A-8D show dose-dependent effects of CXCL12α, CXCL121 and CXCL122 on thrombin-induced impairment of hPPAEC monolayer permeability. hPPAEC cells were grown to a confluent monolayer on collagen-coated permeable membranes. hPPAEC were then exposed to 35 nM of thrombin. After 10 min, thrombin-exposed cells were treated with vehicle or 50 nM (A), 5 nM (B), 0.5 nM (C) or 0.05 nM (D) of the various proteins, as indicated. In (D) 5 nM CXCL12α was used as a positive control. N=3 in quadruplicate.
FIGS. 9A-9B show inhibition of thrombin-induced hyper-permeability of hPPAEC by CXCL12/CXCL12 variants. % inhibition: % inhibition of thrombin-induced hyperpermeability. Data from FIGS. 7 and 8 at t=255 min. N=3 in quadruplicate. *: p<0.05 vs. CXCL12a (2-way ANOVA/Bonferroni's multiple comparison post hoc test).
(§1) In vitro vascular permeability assays—Permeability assays were obtained from Millipore (ECM642) and performed as per manufacturer's instructions. In brief, 96-well collagen-coated permeability assay plates were pre-hydrated for 15 min, 5×10^5 cells were seeded on each well and grown to a confluent monolayer for 48 hours. Fluorescein isothiocyanate (FITC)-dextran (20 μg/mL) was then added on top of the monolayer and the amount of FITC-dextran that permeated through the monolayer was quantified by measuring fluorescence in a Synergy 2 Multi-mode Microplate Reader (BioTek, Winooski, Vt.) at various time points over a 255 min time period.

hPPAEC [2] = assay: In vitro vascular permeability assay (FITC-dextran), hPPAEC monolayer, CXCR4/ACKR3 ligands without thrombin; assay type: cell-based, human; conditions: 50 nM ligand for 10 min, then FITC-dextran; no thrombin
Protocol: FIGS. 1A-1B show expression of CXCR4, ACKR3 and CXCR4:ACKR3 heteromers on hPPAEC and effects of CXCR4/ACKR3 ligands on hPPAEC monolayer permeability. (A) Detection of CXCR4, ACKR3 and CXCR4:ACKR3 heteromers on hPPAEC by PLA. Typical PLA images for the detection of individual receptors and CXCR4:ACKR3 heteromers. Images show merged PLA/40,6-diamidino-2-phenylindole dihydrochloride (DAPI) signals. Ctrl: Omission of one secondary antibody. (B) hPPAEC were grown to a confluent monolayer on collagen-coated permeable membranes. Cells were then exposed to vehicle or 50 nM of CXCR4/ACKR3 ligands for 10 minutes, as indicated, followed by the addition of FITC-dextran. Endothelial permeability was assessed by measuring the amount of FITC-dextran that permeated through the cell monolayer. N=3 in quadruplicate. No cells: 100% permeability, open squares. RFU: Relative fluorescence units. *: p<0.05 vs. vehicle (2-way ANOVA/Bonferroni's multiple comparison post hoc test).
Cells and cell lines—Human primary pulmonary artery endothelial cells (hPPAEC) (ATCC, PCS-100-022) and the human lung microvascular endothelial cell line HULEC-5a (ATCC, CRL-3244) were cultured in vascular cell basal medium (ATCC, PCS-100-030) with endothelial cell growth kit-VEGF (ATCC, PCS-100-041). The HTLA cell line, a HEK293 cell line stably expressing a tTA-dependent luciferase reporter and a β-arrestin2-TEV fusion gene, was generously provided by the laboratory of Dr. Bryan Roth and maintained in high glucose Dulbecco's Modified Eagle's Medium supplemented with 10% (vol/vol) FBS, 1× non-essential amino acids, 100 U/mL penicillin, 100 μg/mL streptomycin, 50 μg/mL hygromycin B, and 2 μg/mL puromycin. All cells were cultured at 37° C., 5% CO2 in a humidified atmosphere.
as §1

CXCR4 = target: T1, CXCR4 (Homo sapiens, UniProt P61073); assay: Presto-Tango β-arrestin 2 recruitment assay for CXCR4; assay type: cell-based
T1 construct: host or cells: HTLA cells (HEK293 line stably expressing a tTA-dependent luciferase reporter and a β-arrestin2-TEV fusion gene)
Protocol: FIGS. 6A-6F show Presto-Tango β-arrestin 2 recruitment assays for CXCR4 (A-C) and ACKR3 (D-F). RLU %: % of the luminescence signal for 1 μM CXCL12α. N=9 for CXCL12a and n=3 for all other proteins.
Presto-Tango β-arrestin 2 recruitment assay—The PRESTO-Tango (parallel receptorome expression and screening via transcriptional out-put, with transcriptional activation following arrestin translocation) assay was performed as recently described. The Tango plasmids were a gift from Dr. Bryan Roth (all from Addgene). HTLA cells (2.5×10^5/well) were seeded in a 6-well plate and transfected with 1.5 μg of the Tango plasmids using Lipofectamine 3000 (ThermoScientific). The following day, transfected HTLA cells (1×10^5 cells/well) were plated onto Poly-L-Lysine pre-coated 96-well micro-plates and allowed to attach to the plate surface for at least 4 hours prior to treatment. Proteins used for treatment were prepared in twice the final concentration in culture media, added at a 1:1 vol/vol ratio and incubated overnight at 37° C., 5% CO2 in a humidified environment. The following morning, media was removed from cell culture plates and replaced with a 100 μL 1:5 mixture of Bright-Glo (Promega) and 1×HBSS, 20 mM HEPES solution. Plates were then incubated at room temperature before measuring luminescence on a Biotek Synergy II plate reader.

[3] = tested on: animal model of acute respiratory distress syndrome (ARDS); assay: Animal model of ARDS: lung ischemia reperfusion injury plus hemorrhage (P:F ratio, lung injury score); assay type: in vivo, Sprague-Dawley rats; conditions: for development of ARDS (P:F ratio): 0.14 μmol/kg i.v. within 10 min after reperfusion, until t=300 min; for histological signs of lung injury, injured lung (lung injury score): H&E sections, vs. vehicle
Protocol: Animals underwent 70 min of […] lung ischemia for 70 min plus hemorrhage to a MAP of 40 mmHg for the last 30 min of ischemia, followed by fluid resuscitation to a MAP of 60 mmHg until t=300 min. Arrow: drug injection. Dashed lines indicate the P:F ratio (mmHg) threshold values for the diagnosis of mild, moderate and severe ARDS. Vehicle: n=5. CXCL12: n=3. CXCL12: n=4. CXCL12-LM: n=3, CXCL12-LD: n=4. CXCL12 K27A/R41A/R47A: n=3. LI+HEM: lung ischemia reperfusion injury plus hemorrhage. Data are mean±SEM. *: p<0.05 vs. vehicle (2-way ANOVA/Dunnett's multiple comparisons test).
FIGS. 12A-12C show lung histology after treatment with CXCL12 and engineered CXCR4 agonists A. Lung specimens were placed in formalin fixative solution and were then embedded in paraffin wax, sliced into 5 μm sections and stained with H&E. Representative images from H&E stained lung sections from animals after vehicle (left) and CXCL12 ([…], right treatment. B/C. Lung injury scores (B. uninjured (left) lung; C. injured (right) lung). Data are median±interquartile ranges. Data were analyzed with the Kruskal Wallis test with Dunn's multiple comparisons test. The level of statistical significance (p) vs. ctrl. (vehicle treatment) indicated.
We tested therapeutic efficacy of wild-type CXCL12, CXXL12-locked dimer (LD), CXCL12-locked monomer (LM) and the triple mutant CXCL12 K27A/R41A/R47A in an animal model of acute respiratory distress syndrome (ARDS) (FIG. 11). All drugs were injected in a dose of 0.14 μmol/kg. Male Sprague-Dawley rats were anesthetized, orotracheally intubated, instrumented with arterial/venous catheters, and mechanically ventilated (PEEP 2 mmHg, FiO2 1.0). After a right lateral thoracotomy, a suture was tied around the hilum of the right lung. Animals underwent 70 min of right lung ischemia plus hemorrhage to a mean arterial blood pressure (MAP) of 40 mmHg for the last 30 min of lung ischemia. At t=70 min, the suture was removed, animals were ventilated with FiO2 1.0, PEEP 5 mmHg and resuscitated with crystalloids to a MAP of 60 mmHg until t=300 min. Vehicle and drugs were injected i.v. within 10 min after reperfusion.
We further evaluated histomorphology of the lungs from animals treated with vehicle, wild-type CXCL12, CXCL12-LD and CXCXL12-LM utilizing a standardized lung injury score. Lung slides stained with hematoxylin and eosin were examined under a light microscope by 4 investigators blinded to the identity of the specimens. The lung injury score was assessed as previously described/. In brief each investigator rendered a score of 0 (no damage) to 4+(maximal damage) based on an injury grading scale composed of six criteria. The slides were assessed for the extent of alveolar congestion, hemorrhage and edema, as well as alveolar and vessel wall PMN infiltration and alveolar wall thickness. […] Lung injury scores of the uninjured and injured lungs from animals treated with vehicle, wild-type CXCL12, CXCL12-LD and CXCXL12-LM are shown in FIGS. […], respectively.

T1 sequence (P61073 whole entry, the tested form may be a part): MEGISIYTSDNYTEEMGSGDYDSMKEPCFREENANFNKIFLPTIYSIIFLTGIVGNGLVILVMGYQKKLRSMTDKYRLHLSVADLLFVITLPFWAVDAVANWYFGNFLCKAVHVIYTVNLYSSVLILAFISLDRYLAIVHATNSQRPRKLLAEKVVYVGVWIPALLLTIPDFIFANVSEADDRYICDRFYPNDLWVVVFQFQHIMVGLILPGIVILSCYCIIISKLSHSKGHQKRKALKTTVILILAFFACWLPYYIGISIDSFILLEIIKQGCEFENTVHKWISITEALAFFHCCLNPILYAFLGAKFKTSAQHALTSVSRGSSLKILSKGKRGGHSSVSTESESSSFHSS

Row | Molecule | effect on thrombin-induced permeability of hPPAEC when added after thrombin (hPPAEC [1]; thrombin 35 nM, after 10 min CXCL12 or ubiquitin 50 nM, AMD3100 10 μM) | antagonism of the CXCL12 effect on thrombin-induced permeability (hPPAEC [1]; thrombin 35 nM, CXCL12 50 nM plus AMD3100 10 μM) | effect on hPPAEC monolayer permeability (hPPAEC [2]) | potency (EC50) to recruit β-arrestin 2 to CXCR4, compared with CXCL12α (CXCR4) | development of ARDS (P:F ratio) [3] | histological signs of lung injury, injured lung (lung injury score) [3] | potency to attenuate thrombin-induced permeability of hPPAEC (in words) (hPPAEC [1]) | concentration at which thrombin-mediated hPPAEC barrier impairment was affected (hPPAEC [1]; tested 0.05-50 nM, t=255 min)
1 | c1cc(CN2CCCNCCNCCCNCC2)ccc1CN1CCCNCCNCCCNCC1 [AMD3100] | did not affect thrombin-mediated hyper-permeability of hPPAEC | could be antagonized | did not affect hPPAEC permeability | – | – | – | – | –
2 | CXCL121: constitutively monomeric CXCL12 variant with L55C and I58C substitutions (SEQ ID NO:2) | – | – | – | no statistically significant differences | prevented development of ARDS | significantly reduced | – | –
3 | CXCL122: constitutively dimeric, disulfide-locked CXCL12 variant containing L36C/A65C mutations (SEQ ID NO:3) | – | – | – | no statistically significant differences | prevented development of ARDS | significantly reduced | significantly reduced potency | 50 nM
4 | CXCL11: an ACKR3 and CXCR3 agonist (protein, UniProt O14625 22-94, looked up) C-X-C motif chemokine 11: FPMFKRGRCLCIGPGVKAVKVADIEKASIMYPSNNCDKIEVIITLKENKGQRCLNPKSKQARLIIKKVERKNF | – | – | did not affect hPPAEC permeability | – | – | – | – | –
